From patent US20250257055A1, “TERTIARY AMIDE DERIVATIVES SUBSTITUTED WITH 4-MEMBERED RING STRUCTURE” (Sumitomo Pharma Co., Ltd., priority 2024, published 2025)
Converted amounts (≈) assume the structure as drawn. Like-named read-outs stand apart in the source and are kept apart here.

What was measured:
RMGI cells = assay: Cell proliferation inhibition experiment using RMGI cells; type: cell-based; conditions: Homo sapiens, RMG-I, 144 h, cultured for 6 days, CellTiter-Glo
Experimental: RMGI cells (derived from ovarian cancer) were obtained from JCRB cell bank. RMGI cells were cultured in Ham's F12 medium containing 10% fetal bovine serum and 1% penicillin/streptomycin under conditions of 37° C. and 5% CO2.
(§1) 200 cells per well were seeded in a 384-well plate. One day after seeding, Examples 3, 7, 9, 10, 11, 20, and 23 to 25 were added so that the final concentration of DMSO was 0.1%, and the cells were cultured for 6 days. After the culture was completed, the cell viability was measured using CellTiter-Glo Luminescent Cell Viability Assay (Promega, G7570).

G-401 cells = assay: Cell proliferation inhibition experiment using G-401 cells; type: cell-based; conditions: Homo sapiens, 72 h, cultured for 3 days, CellTiter-Glo
Experimental: G-401 cells (derived from malignant rhabdoid tumor) were obtained from the American Type Culture Collection (ATCC). G-401 cells were cultured in McCoy's 5A medium containing 10% fetal bovine serum and 1% penicillin/streptomycin under conditions of 37° C. and 5% CO2.
as §1, with “500” for “200”, “1” for “3, 7, 9, 10, 11, 20, and 23”, “35” for “25”, “3” for “6”

[1] = Membrane permeability test (PAMPA); type: in vitro ADME
Experimental: The membrane permeability of the test compound was tested by parallel artificial membrane permeability assay (PAMPA) as follows. 200 μL of System solution (pION Inc.) containing the test compound and 4 μL of GIT Lipid-0 (pION Inc.) were added to the donor plate. 200 μL of Acceptor Sink Buffer (pION Inc.) was added to the acceptor plate. Both plates were overlapped and incubated at 37° C. for 4 hours, after which the UV of the solutions on the acceptor side and donor side was measured using a UV plate reader (190-500 nm). Compounds with poor UV absorption were measured using LC-MS. The permeability coefficient Pe (10^−6 cm/sec) of the drug was calculated using the following equation.

recombinant p300 = recombinant p300 (Homo sapiens (Human), UniProt Q09472); assay: HAT activity inhibition experiment (SensoLyte HAT(p300) Assay Kit); type: biochemical; conditions: recombinant p300, histone H3 peptide, acetyl CoA
Sequence of recombinant p300 (Q09472 whole entry): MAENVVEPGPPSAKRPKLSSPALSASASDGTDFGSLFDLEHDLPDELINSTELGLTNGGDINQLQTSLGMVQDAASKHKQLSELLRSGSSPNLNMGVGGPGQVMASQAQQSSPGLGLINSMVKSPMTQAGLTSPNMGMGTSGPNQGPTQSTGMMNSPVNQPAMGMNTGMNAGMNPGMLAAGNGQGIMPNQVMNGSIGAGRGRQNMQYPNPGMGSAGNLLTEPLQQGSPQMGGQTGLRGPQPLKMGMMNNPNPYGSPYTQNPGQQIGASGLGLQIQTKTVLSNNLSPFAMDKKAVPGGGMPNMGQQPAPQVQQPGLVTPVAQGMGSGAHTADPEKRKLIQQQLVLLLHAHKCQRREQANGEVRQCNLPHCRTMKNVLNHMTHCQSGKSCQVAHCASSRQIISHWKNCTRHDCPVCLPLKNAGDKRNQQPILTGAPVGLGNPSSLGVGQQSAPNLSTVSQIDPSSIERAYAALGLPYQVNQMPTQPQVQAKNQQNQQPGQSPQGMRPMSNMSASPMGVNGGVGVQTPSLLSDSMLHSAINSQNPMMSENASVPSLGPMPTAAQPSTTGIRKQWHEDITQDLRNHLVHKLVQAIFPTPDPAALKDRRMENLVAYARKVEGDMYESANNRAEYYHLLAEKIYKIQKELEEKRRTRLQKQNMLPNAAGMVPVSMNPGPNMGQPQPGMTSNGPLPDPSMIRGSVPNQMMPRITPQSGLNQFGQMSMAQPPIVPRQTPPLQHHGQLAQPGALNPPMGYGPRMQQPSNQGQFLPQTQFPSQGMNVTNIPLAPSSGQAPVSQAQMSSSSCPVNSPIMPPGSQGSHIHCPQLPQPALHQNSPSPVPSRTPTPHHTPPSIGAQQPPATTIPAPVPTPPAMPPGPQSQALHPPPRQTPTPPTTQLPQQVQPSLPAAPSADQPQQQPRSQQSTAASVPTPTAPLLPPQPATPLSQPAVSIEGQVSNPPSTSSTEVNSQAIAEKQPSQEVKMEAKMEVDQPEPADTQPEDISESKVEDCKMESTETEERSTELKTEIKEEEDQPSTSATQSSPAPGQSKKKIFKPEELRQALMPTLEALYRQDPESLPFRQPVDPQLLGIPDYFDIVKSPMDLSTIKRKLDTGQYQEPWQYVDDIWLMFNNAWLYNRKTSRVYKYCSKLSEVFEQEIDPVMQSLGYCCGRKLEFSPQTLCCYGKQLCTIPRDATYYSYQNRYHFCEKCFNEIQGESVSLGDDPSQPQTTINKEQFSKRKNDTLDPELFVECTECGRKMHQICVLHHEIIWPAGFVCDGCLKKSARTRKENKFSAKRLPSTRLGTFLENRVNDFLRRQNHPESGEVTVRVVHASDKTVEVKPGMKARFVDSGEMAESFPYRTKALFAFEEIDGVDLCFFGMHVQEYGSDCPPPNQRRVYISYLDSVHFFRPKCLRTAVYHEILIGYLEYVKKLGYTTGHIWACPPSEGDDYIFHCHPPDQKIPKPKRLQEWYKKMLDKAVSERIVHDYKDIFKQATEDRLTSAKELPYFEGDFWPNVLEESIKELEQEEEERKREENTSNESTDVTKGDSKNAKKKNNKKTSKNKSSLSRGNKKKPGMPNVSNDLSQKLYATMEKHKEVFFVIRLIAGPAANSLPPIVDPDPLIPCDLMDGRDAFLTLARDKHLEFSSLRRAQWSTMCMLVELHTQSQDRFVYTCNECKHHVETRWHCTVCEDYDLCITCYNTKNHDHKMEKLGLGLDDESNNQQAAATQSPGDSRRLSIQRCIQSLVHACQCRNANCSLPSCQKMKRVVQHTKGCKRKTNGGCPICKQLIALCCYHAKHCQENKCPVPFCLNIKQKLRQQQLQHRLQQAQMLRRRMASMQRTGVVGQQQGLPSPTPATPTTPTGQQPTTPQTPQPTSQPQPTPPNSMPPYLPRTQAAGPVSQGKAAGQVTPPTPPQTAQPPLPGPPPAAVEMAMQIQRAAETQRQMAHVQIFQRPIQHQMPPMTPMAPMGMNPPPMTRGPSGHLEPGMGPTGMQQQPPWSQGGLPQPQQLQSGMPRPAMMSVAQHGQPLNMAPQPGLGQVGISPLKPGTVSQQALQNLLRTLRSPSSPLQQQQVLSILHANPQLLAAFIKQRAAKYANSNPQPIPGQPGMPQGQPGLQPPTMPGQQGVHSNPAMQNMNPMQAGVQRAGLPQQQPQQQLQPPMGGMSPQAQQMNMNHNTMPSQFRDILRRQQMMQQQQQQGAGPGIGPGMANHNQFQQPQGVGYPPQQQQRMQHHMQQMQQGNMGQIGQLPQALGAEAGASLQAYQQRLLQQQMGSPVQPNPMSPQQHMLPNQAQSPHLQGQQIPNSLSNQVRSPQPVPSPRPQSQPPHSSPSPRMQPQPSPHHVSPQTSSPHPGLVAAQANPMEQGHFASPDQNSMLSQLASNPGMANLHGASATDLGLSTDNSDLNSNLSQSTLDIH
Experimental: The HAT activity inhibitory ability of HAT inhibitors was evaluated using SensoLyte HAT(p300) Assay Kit (ANASPEC, AS-72172). Specifically, 7.5 μL of the compound of Examples […] diluted with assay buffer was added to 7.5 μL of recombinant p300 solution diluted 10 times with assay buffer, and the mixture was incubated at room temperature for 10 minutes. 7.5 μL of acetyl CoA solution diluted 10 times with assay buffer and 15 μL of histone H3 peptide diluted 10 times with assay buffer were added thereto, and the mixture was incubated at 37° C. for 30 minutes. 37.5 μL of Stop Solution was added to stop the reaction. 75 μL of p300 Developer solution diluted 50 times with assay buffer was added, and the mixture was incubated at room temperature for 30 minutes under light-shielded conditions. The fluorescence at 513 nm when irradiated with 389 nm excitation light was measured using a multiplate reader.

Kuramochi cells = assay: Cell proliferation inhibition experiment using Kuramochi cells; type: cell-based; conditions: 144 h, cultured for 6 days, CellTiter-Glo
Experimental: Kuramochi cells (derived from ovarian cancer) were obtained from JCRB (Japanese Collection of Research Bioresources) cell bank. Kuramochi cells were cultured in RPMI-1640 medium containing 10% fetal bovine serum and 1% penicillin/streptomycin under conditions of 37° C. and 5% CO2.
as §1, with “500” for “200”, “20,” for “20, and”, “25, and 30 to 34” for “25”

[2] = Pharmacokinetic study in mice; type: in vivo; conditions: for AUC / clearance / half-life / Vd / Cmax: female, BALB/c (BALB/cAnN CrlCrlj), mouse, plasma; for Vd: read-out: Vdss
Experimental: The test compound was administered to 7-week-old female BALB/c (BALB/cAnN CrlCrlj) mice intravenously (dosage: 1 mg/kg) in a 50% PEG solution (0.01 mol/L HCl) or orally (dosage: 10 mg/kg) in a 0.5% methylcellulose aqueous solution, and blood was collected at the following times:
Intravenous administration: 5 min, 15 min, 30 min, 1 hr, 2 hr, 4 hr, 6 hr, and 24 hr after administration
Oral administration: 15 min, 30 min, 1 hr, 2 hr, 4 hr, 6 hr, and 24 hr after administration
The collected blood was centrifuged at 3000 rpm×10 min using a refrigerated centrifuge set at 4° C., and the obtained plasma was measured by LC-MS. A calibration curve was prepared from the value (peak ratio) obtained by dividing the peak area of the test substance by the peak area of the internal standard substance in MS and the concentration of the plasma calibration curve sample. The concentration in the sample was calculated from the peak ratio and the calibration curve of each sample.

Solubility test = type: physicochemical; conditions: for solubility: aqueous buffer, thermodynamic from solid
Experimental: The solubility was measured for Examples 7, 10, 20, 23, 24, and 30 to 34, Comparative Example 1, and Comparative Example 2. The test compound was added to 10 mmol/L glycine buffer (pH 2.0) and 10 mmol/L citrate buffer (pH 3.0), and the mixture was stored in a thermostatic chamber at 5° C. After standing overnight, the mixture was filtered through a membrane filter, and the concentration of the filtrate was measured by HPLC.

G-401 xenograft = assay: Drug efficacy evaluation by intravenous administration using G-401 xenograft mice model; type: in vivo
Experimental: G-401 cells (ATCC) were intradermally transplanted into 4-7-week-old BALB/cAnNCrj-nu/nu mice (CAnN.Cg-Foxn1/CrlCrlj, Jackson Laboratory Japan) at 5×10^5 cells/mouse. After confirming the engraftment of G-401 cells 10-40 days after transplantation, the test compound suspended in a solvent such as 10 mmol/L glycine buffer solution (pH 2.0) was administered via the tail vein at least once a week at a dose of 0.015-20 mg/kg. The tumor volume was measured over time from the start of administration, and the effect of tumor volume reduction by administration of the test compound was evaluated. The tumor volume can be calculated from the following equation using the minor axis and major axis of the tumor measured with an electronic caliper (Mitutoyo).
A control administration group administered with only a solvent such as 10 mmol/L glycine buffer solution (pH 2.0) and a test compound administration group were compared, and the antitumor effect was evaluated by calculating T/C from the following equation.

[3] = pH 5.0, 37° C., read-out: pH 5.0 Pe
[4] = pH 7.4, 37° C., read-out: pH 7.4 Pe
[5] = 10 mmol/L citrate buffer (pH 3.0), 5° C., overnight, read-out: Solubility in pH 3.0 buffer
[6] = 10 mmol/L glycine buffer (pH 2.0), 5° C., overnight, read-out: Solubility in pH 2.0 buffer

| SMILES | IC50 (RMGI cells) [nM] | IC50 (G-401 cells) [nM] | Papp at 4 h [1, 3] [×10⁻⁶ cm/s] | Papp at 4 h [1, 4] [×10⁻⁶ cm/s] | IC50 (recombinant p300) [nM] | IC50 (Kuramochi cells) [nM] | AUC ([2]; intravenous, 1 mg/kg) [ng·h/mL] | clearance ([2]; intravenous, 1 mg/kg) [mL/min/kg] | half-life ([2]; intravenous, 1 mg/kg) [min] | Vd ([2]; intravenous, 1 mg/kg) [L/kg] | AUC ([2]; oral, 10 mg/kg) [ng·h/mL] | Cmax ([2]; oral, 10 mg/kg) [ng/mL] | BA ([2]; oral, 10 mg/kg) [%] | solubility (Solubility test; [5]) [µg/mL] | solubility (Solubility test; [6]) [µg/mL] | antitumor effect (in words) (G-401 xenograft; G-401 xenograft model, intravenous administration) | T/C (G-401 xenograft; intravenous (tail vein), 0.015 mg/kg, 14 days) [%] | Solubility in pH 3.0 buffer (Solubility test; 10 mmol/L citrate buffer (pH 3.0), 5° C., overnight) [mg/mL] | Solubility in pH 2.0 buffer (Solubility test; 10 mmol/L glycine buffer (pH 2.0), 5° C., overnight) [mg/mL] | solubility (in words) (Solubility test; pH 2.0 and pH 3.0 buffers) |
| --- | --- | --- | --- | --- | --- | --- | --- | --- | --- | --- | --- | --- | --- | --- | --- | --- | --- | --- | --- | --- |
| CN1CC(N(Cc2ccc(F)cc2)C(=O)CN2C(=O)N[C@]3(C[C@@H](F)c4cc(-c5cnn(C(C)(C)C#N)c5)ccc43)C2=O)(C(F)(F)F)C1 [Example 11, 2-{(1′S,3′R)-5′-[1-(2-cyanopropan-2-yl)-1H-pyrazol-4-yl]-3′-fluoro-2,5-dioxo-2′,3′-dihydrospiro[imidazolidine-4,1′-inden]-1-yl}-N-[(4-fluorophenyl)methyl]-N-[1-methyl-3-(trifluoromethyl)azetidin-3-yl]acetamide] | 5 | 10 | 24.1 | 27.2 | 2.1 | 48 | 446 | 33.7 | 127 | 4.1 | 2500 | 1720 | 56.2 | – | – | – | – | – | – | – |
| O=C1N[C@]2(C[C@@H](F)c3cc(-c4cnn(C5CN(C6COC6)C5)c4)ccc32)C(=O)N1CC(=O)N(Cc1ccc(F)cc1)C1(C(F)(F)F)COC1 [Example 3, 2-[(1′S,3′R)-3′-fluoro-5′-{1-[1-(oxetan-3-yl)azetidin-3-yl]-1H-pyrazol-4-yl}-2,5-dioxo-2′,3′-dihydrospiro[imidazolidine-4,1′-inden]-1-yl]-N-[(4-fluorophenyl)methyl]-N-[3-(trifluoromethyl)oxetan-3-yl]acetamide] | 18 | 44 | 14.9 | 17.7 | 0.6 | 91 | 764 | 20.6 | 108 | 2 | 3890 | 2670 | 50.9 | – | – | – | – | – | – | – |
| CC(C)n1cc(-c2ccc3c(c2)[C@H](F)C[C@]32NC(=O)N(CC(=O)N(Cc3ccc(F)cn3)C3(C(F)(F)F)CN(C)C3)C2=O)cn1 [Example 33, 2-{(1′S,3′R)-3′-fluoro-2,5-dioxo-5′-[1-(propan-2-yl)-1H-pyrazol-4-yl]-2′,3′-dihydrospiro[imidazolidine-4,1′-inden]-1-yl}-N-[(5-fluoropyridin-2-yl)methyl]-N-[1-methyl-3-(trifluoromethyl)azetidin-3-yl]acetamide] | – | 4 | 22.6 | 27 | 0.2 | 24 | – | – | – | – | – | – | – | 8600 (≈ 13600 µM) | > 10000 | – | – | – | – | – |
| CNC(=O)Cn1cc(-c2ccc3c(c2)[C@H](F)C[C@]32NC(=O)N(CC(=O)N(Cc3ccc(F)cc3)[C@@H](C)C(F)(F)F)C2=O)cn1 [Comparative Example 1, reference compound] | – | – | 21.3 | 20.8 | – | – | – | – | – | – | – | – | – | 5 (≈ 8.08 µM) | 2 (≈ 3.23 µM) | no antitumor effect | −1.1 | 0.005 | 0.002 | extremely low solubility |
| O=C1N[C@]2(C[C@@H](F)c3cc(-c4cnn(C5CN(C6COC6)C5)c4)ccc32)C(=O)N1CC(=O)N(Cc1ccc(F)cn1)C1(C(F)(F)F)CC(F)(F)C1 [Example 9, N-[3,3-difluoro-1-(trifluoromethyl)cyclobutyl]-2-[(1′S,3′R)-3′-fluoro-5′-{1-[1-(oxetan-3-yl)azetidin-3-yl]-1H-pyrazol-4-yl}-2,5-dioxo-2′,3′-dihydrospiro[imidazolidine-4,1′-inden]-1-yl]-N-[(5-fluoropyridin-2-yl)methyl]acetamide] | 24 | 38 | 13.3 | 15.3 | – | 184 | 1200 | 11.9 | 146 | 2 | 13100 | 5370 | 109.1 | – | – | – | – | – | – | – |
| CCn1cc(-c2ccc3c(c2)[C@H](F)C[C@]32NC(=O)N(CC(=O)N(Cc3ccc(F)cc3)C3(C(F)(F)F)CN(C)C3)C2=O)cn1 [Example 30, 2-[(1′S,3′R)-5′-(1-ethyl-1H-pyrazol-4-yl)-3′-fluoro-2,5-dioxo-2′,3′-dihydrospiro[imidazolidine-4,1′-inden]-1-yl]-N-[(4-fluorophenyl)methyl]-N-[1-methyl-3-(trifluoromethyl)azetidin-3-yl]acetamide] | – | 2 | 30.6 | 35 | 1.5 | 10 | – | – | – | – | – | – | – | 1700 (≈ 2760 µM) | 8800 (≈ 14300 µM) | – | – | – | – | – |
